“And” between values parts separate entries of the source, which are not always exact repeats. Equal values may be shown once. Where a name gives a salt, the structure may show the parent alone.
Tests used:
Format in all cases: in vivo, rat
[1] = system: scopolamine-induced amnesia in rats; test: Passive avoidance test (Gemini Avoidance System), crossover latency, scopolamine-induced amnesia
[2] = system: liver sulfatase; test: Liver sulfatase activity after IP dosing of rats; details: for % Inhibition of liver sulfatase / Liver Sulfatase Activity: 30 mg/kg IP; for Liver Sulfatase Activity: mean ± SEM, P<0.01 vs control, corn oil control 164.10 ± 2.5
Procedure: (§1) DU-14 was tested for its sulfatase inhibition in rats. 30 mg/kg of the compound was administered to rats IP for 15 days. Sulfatase inhibition was measured by the sulfatase activity in ng E1 S/μg protein/hr in the liver and brain as determined by methods known in the art. The results are presented below in Tables 1 and 2.

[3] = system: brain sulfatase; test: Brain sulfatase activity after IP dosing of rats; details: 30 mg/kg IP; for Brain Sulfatase Activity: mean ± SEM, P<0.01 vs control, corn oil control 3.24 ± 0.32
Procedure: as §1

SMILES | maximum crossover latency ([1]; DHEAS 20 mg/Kg IP one hour before acquisition trial, scopolamine 1 mg/Kg IP 30 minutes before) [s] | reversal of scopolamine-induced amnesia ([1]; DHEAS 5-70 mg/kg IP one hour before acquisition trial, bell shaped dose response curve) | % Inhibition of liver sulfatase ([2]; 1 Day) [%] | Liver Sulfatase Activity ([2]; 1 Day) [ng E1 S/μg protein/hr] | % Inhibition of liver sulfatase ([2]; 15 Days, 30 mg/kg) | Liver Sulfatase Activity ([2]; 15 Days) [ng E1 S/μg protein/hr] | liver sulfatase after only 1 day ([2]; 1 day, from about 164) | crossover latency ([1]; DU-14 alone 30 mg/Kg IP daily for 15 days before acquisition trial, scopolamine) | reversal of scopolamine-induced amnesia ([1]; DU-14 alone daily for 15 days, 30 mg/Kg IP) | crossover latency ([1]; DU-14 alone, single dose 30 mg/Kg IP four hours before acquisition trial) | crossover latency, overall conclusion ([1]; summary of Example III) | % Inhibition of brain sulfatase ([3]; 1 Day) [%] | Brain Sulfatase Activity ([3]; 1 Day) [pg E1 S/μg protein/hr] | Brain Sulfatase Activity ([3]; 15 Days) [pg E1 S/μg protein/hr]
C[C@]12CC[C@H](OS(=O)(=O)O)CC1=CC[C@@H]1[C@@H]2CC[C@]2(C)C(=O)CC[C@@H]12 [DHEAS, dehydroepiandrosterone sulfate, reference compound] | 262.5 ± 84.6 | significant (p≤0.05), reversal of scopolamine-induced amnesia |  |  |  |  |  |  |  |  |  |  |  | 
CCCCCCCCCCCCCC(=O)NCCc1ccc(OS(N)(=O)=O)cc1 [DU-14] |  |  | 95.2 | 7.85 ± 0.65 | 97.6% and ~98% | 4.01 ± 0.23 | about 8 | 278.7±88.1 | significant (p≤0.05) reversal of scopolamine-induced amnesia | failed to increase crossover latency | significant increase in crossover latency | 14.8 | 2.76 ± 0.27 | 0.48 ± 0.10
